Format in all cases: in vivo
Test [1] concerns Candida albicans and Trichophyton mentagrophytes var. quinkeanum. As to the kind of experiment: Oral antifungal test in oestradiol-treated female mice inoculated vaginally and on the back. The settings on record: 168 h, oral dosing twice on day 0 and once daily on days 1-4, skin lesions scored and vaginal samples cultured on day 7, read-out: minimum effective dose (MED). As for the experimental part:
The following Monday (day 0) they are clipped on the back and then dosed orally with test compounds. They are then inoculated with Candida albicans in the vagina and Trichophyton mentagrophytes var. quinkeanum on the back, and then given a second dose of the same compound. Dosing is repeated once daily on days 1-4. On day 7 skin lesions are scored visually and vaginal samples taken for culture on agar. Groups of 5 mice are used and compounds are dosed initially at a level of 250mg./kg. The dose is then reduced sequentially until a minimum effective dose (MED) is found. The MED for 2,2-bis(4-chlorophenyl)-3-(1,2,4-triazol-1-yl)propionamide in this test was 5mg. per kg.

In test [2] the test system is CERCOSPORA ARACHIDICOLA (PEANUT). As to the kind of experiment: Foliar fungal disease test on plants (spray and root drench). The settings on record: 100 ppm active ingredient spray, root drench approximately 40 ppm a.i./dry soil; applied one or two days before inoculation. As for the experimental part: (§1) The compound of Example 1 was tested against a variety of foliar fungal diseases of plants. The technique employed was as follows:- The plants were grown in John Innes Potting Compost (No. 1 or 2) in 4 cm diameter minipots. A layer of fine sand was placed at the bottom of the pots containing the dicotyledonous plants to facilitate uptake of test compound by the roots. The test compound was formulated either by bead milling with aqueous Dispersol T or as a solution of acetone or acetone/ethanol which was diluted to the required concentration immediately before use. For the foliage diseases, suspensions (100 ppm active ingredient) were sprayed on to the […]. Exceptions to this were the tests on Botrytis cinerea, Plasmopara viticola and venturia inaequalis. The sprays were applied to maximum retention and the root drenches to a final concentration equivalent to approximately 40 ppm a.i./dry soil. Tween 20, to give a final concentration of 0.05%, was added when the sprays were applied to cereals. For most of the tests the compound was applied to the soil (roots) and the foliage (by spraying) one or two days before the plant was inoculated with the diseases. An exception was the test on Erysiphe graminis in which the plants were inoculated 24 hours before treatment. After inoculation, the plants were put into an appropriate environment to allow infection to take place and The disease control was recorded by the following grading:- [table]

In test [3] the test system is ERYSIPHE GRAMINIS (BARLEY). The description is as above. The settings on record: 100 ppm active ingredient spray, root drench approximately 40 ppm a.i./dry soil; plants inoculated 24 hours before treatment. The protocol:
as §1

In test [4] the test system is PUCCINIA RECONDITA (WHEAT). Described as above. As to conditions: 100 ppm active ingredient spray, root drench approximately 40 ppm a.i./dry soil; applied one or two days before inoculation. As for the experimental part: as §1
The test system of test [5] is VENTURIA INAEQUALIS (APPLE). Described as above. As to conditions: 100 ppm active ingredient; Venturia inaequalis named as an exception to the combined spray and soil application; applied one or two days before inoculation. As for the experimental part:
as §1

The values below come from patent EP0069448A1, “Fungicidal amide derivatives” (IMPERIAL CHEMICAL INDUSTRIES PLC, priority 1981, dated 1983).

With `NC(=O)C(Cn1cncn1)(c1ccc(Cl)cc1)c1ccc(Cl)cc1` [Example 1, 2,2-bis(4-chlorophenyl)-3-(1,2,4-triazol-1-yl)propionamide], the minimal effective dose in test [1] was 5 mg/kg. Also, in test [2], the “disease control grading, CERCOSPORA ARACHIDICOLA (PEANUT)” value is recorded as 2. Also, the “disease control grading, ERYSIPHE GRAMINIS (BARLEY)” value in test [3] is reported as 4. In addition, in test [4], the “disease control grading, PUCCINIA RECONDITA (WHEAT)” value is 1. The “disease control grading, VENTURIA INAEQUALIS (APPLE)” value in test [5] turned out to be 3.
